Measured values published in US20120029187A1, “HALOALKYLSULFONANILIDE DERIVATIVE” (Nissan Chemical Industries, Ltd., priority 2009, published 2012).

Columns and labels:
Type in all cases: in vivo
transplanted rice = test: Test Example 1: preemergence treatment under submerged conditions, effect on crop; conditions: dose 2.52 g/a
Outline: (§1)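 Weed seeds and 2.5-leaf rice seedlings shared each flooded cup of alluvial soil. Dosing, expressed as g per are, was by pouring water-diluted emulsifiable concentrate onto the surface on sowing day. Mortality was graded 0 to 5 after three weeks' growth.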

barnyardgrass [1] = test: Test Example 2: herbicidal effects during the vegetation period under submerged conditions; conditions: treatment during the vegetation period under submerged conditions; dose 2.52 g/a
Outline: (§2)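 Barnyardgrass, bulrush and ducksalad were co-sown in alluvial soil flooded to 4 cm and grown in a greenhouse at 25 to 30° C. At the 1- or 2-leaf stage, water-diluted emulsifiable concentrates went onto the water surface at set doses (g/a). Herbicidal effect was scored three weeks later on a graded scale.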

bulrush [2] = test: as above; conditions: treatment during the vegetation period under submerged conditions; dose 2.52 g/a
Outline: as §2

ducksalad [3] = test: as above; conditions: treatment during the vegetation period under submerged conditions; dose 2.52 g/a
Outline: as §2

barnyardgrass [4] = test: Test Example 3: herbicidal effects in soil treatment; conditions: dose 3.2 g/a
Outline: (§3)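 Seeds were sown in sterilized diluvial soil and covered with about 1.5 cm of soil. Compounds, formulated as emulsifiable concentrates and diluted with water, were sprayed evenly over the soil surface at set doses in g/a. Herbicidal effect was scored on a rating scale three weeks later.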

Italian ryegrass [5] = test: as above; conditions: dose 3.2 g/a
Outline: as §3

water foxtail [6] = test: as above; conditions: dose 3.2 g/a
Outline: as §3

large crabgrass [7] = test: as above; conditions: dose 3.2 g/a
Outline: as §3

common ragweed [8] = test: as above; conditions: dose 3.2 g/a
Outline: as §3

giant foxtail [9] = test: as above; conditions: dose 3.2 g/a
Outline: as §3

redroot pigweed [10] = test: as above; conditions: dose 3.2 g/a
Outline: as §3

common chickweed [11] = test: as above; conditions: dose 3.2 g/a
Outline: as §3

common lambsquater [12] = test: as above; conditions: dose 3.2 g/a
Outline: as §3

posumbu knotweed [13] = test: as above; conditions: dose 3.2 g/a
Outline: as §3

velvetleaf [14] = test: as above; conditions: dose 3.2 g/a
Outline: as §3

barnyardgrass [15] = test: Test Example 4: herbicidal effect in foliage treatment; conditions: dose 3.2 g/a, three weeks after application
Outline: (§4)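 Seeds sown in sterilized diluvial soil under ~1.5 cm soil cover and grown 14 days in a greenhouse at 25 to 30° C. Emulsifiable concentrates diluted with water were then sprayed uniformly on foliage at predetermined doses (g/a). Herbicidal effect was scored three weeks after application on a graded evaluation scale.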

Italian ryegrass [16] = test: as above; conditions: dose 3.2 g/a, three weeks after application
Outline: as §4

water foxtail [17] = test: as above; conditions: dose 3.2 g/a, three weeks after application
Outline: as §4

large crabgrass [18] = test: as above; conditions: dose 3.2 g/a, three weeks after application
Outline: as §4

common ragweed [19] = test: as above; conditions: dose 3.2 g/a, three weeks after application
Outline: as §4

giant foxtail [20] = test: as above; conditions: dose 3.2 g/a, three weeks after application
Outline: as §4

redroot pigweed [21] = test: as above; conditions: dose 3.2 g/a, three weeks after application
Outline: as §4

beadstraw = test: as above; conditions: dose 3.2 g/a, three weeks after application
Outline: as §4

common chickweed [22] = test: as above; conditions: dose 3.2 g/a, three weeks after application
Outline: as §4

common lambsquater [23] = test: as above; conditions: dose 3.2 g/a, three weeks after application
Outline: as §4

posumbu knotweed [24] = test: as above; conditions: dose 3.2 g/a, three weeks after application
Outline: as §4

velvetleaf [25] = test: as above; conditions: dose 3.2 g/a, three weeks after application
Outline: as §4

barnyardgrass [26] = test: Test Example 1: herbicidal effects in preemergence treatment under submerged conditions; conditions: dose 2.52 g/a
Outline: as §1

bulrush [27] = test: as above; conditions: dose 2.52 g/a
Outline: as §1

ducksalad [28] = test: as above; conditions: dose 2.52 g/a
Outline: as §1

Row | SMILES | a: transplanted rice, effect on crop (evaluation scale 0-5) (transplanted rice) | A: barnyardgrass, herbicidal effect (evaluation scale 0-5) (barnyardgrass [1]) | B: bulrush, herbicidal effect (evaluation scale 0-5) (bulrush [2]) | C: ducksalad, herbicidal effect (evaluation scale 0-5) (ducksalad [3]) | A: barnyardgrass, herbicidal effect (evaluation scale 0-5) (barnyardgrass [4]) | H: Italian ryegrass, herbicidal effect (evaluation scale 0-5) (Italian ryegrass [5]) | G: water foxtail, herbicidal effect (evaluation scale 0-5) (water foxtail [6]) | D: large crabgrass, herbicidal effect (evaluation scale 0-5) (large crabgrass [7]) | J: common ragweed, herbicidal effect (evaluation scale 0-5) (common ragweed [8]) | E: giant foxtail, herbicidal effect (evaluation scale 0-5) (giant foxtail [9]) | K: redroot pigweed, herbicidal effect (evaluation scale 0-5) (redroot pigweed [10]) | N: common chickweed, herbicidal effect (evaluation scale 0-5) (common chickweed [11]) | L: common lambsquater, herbicidal effect (evaluation scale 0-5) (common lambsquater [12]) | M: posumbu knotweed, herbicidal effect (evaluation scale 0-5) (posumbu knotweed [13]) | I: velvetleaf, herbicidal effect (evaluation scale 0-5) (velvetleaf [14]) | A: barnyardgrass, herbicidal effect (barnyardgrass [15]) | H: Italian ryegrass, herbicidal effect (Italian ryegrass [16]) | G: water foxtail, herbicidal effect (water foxtail [17]) | D: large crabgrass, herbicidal effect (large crabgrass [18]) | J: common ragweed, herbicidal effect (common ragweed [19]) | other results
1 | CCOC(=O)N(c1ccccc1CN1COC2(CCCCC2)CC1=O)S(=O)(=O)C(F)(F)F [II-68] | 3 (mortality of at least 40% and less than 70%) | 5 (mortality of 90% or above (nearly complete death)) | 5 (mortality of 90% or above (nearly complete death)) | 5 (mortality of 90% or above (nearly complete death)) | 5 (mortality of 90% or above (nearly complete death)) | 5 (mortality of 90% or above (nearly complete death)) | 5 (mortality of 90% or above (nearly complete death)) | 5 (mortality of 90% or above (nearly complete death)) | 2 (mortality of at least 20% and less than 40%) | 5 (mortality of 90% or above (nearly complete death)) | 3 (mortality of at least 40% and less than 70%) | 4 (mortality of at least 70% and less than 90%) | 4 (mortality of at least 70% and less than 90%) | 5 (mortality of 90% or above (nearly complete death)) | 5 (mortality of 90% or above (nearly complete death)) | 5 (mortality of 90% or above (nearly complete death)) | 1 (mortality of at least 5% and less than 20%) | 3 (mortality of at least 40% and less than 70%) | 4 (mortality of at least 70% and less than 90%) | 3 (mortality of at least 40% and less than 70%) | E: giant foxtail, herbicidal effect (giant foxtail [20]): 5 (mortality of 90% or above (nearly complete death)); K: redroot pigweed, herbicidal effect (redroot pigweed [21]): 2 (mortality of at least 20% and less than 40%); O: beadstraw, herbicidal effect (beadstraw): 3 (mortality of at least 40% and less than 70%); N: common chickweed, herbicidal effect (common chickweed [22]): 4 (mortality of at least 70% and less than 90%); L: common lambsquater, herbicidal effect (common lambsquater [23]): 4 (mortality of at least 70% and less than 90%); M: posumbu knotweed, herbicidal effect (posumbu knotweed [24]): 2 (mortality of at least 20% and less than 40%); I: velvetleaf, herbicidal effect (velvetleaf [25]): 4 (mortality of at least 70% and less than 90%); A: barnyardgrass, herbicidal effect (evaluation scale 0-5) (barnyardgrass [26]): 5 (mortality of 90% or above (nearly complete death)); B: bulrush, herbicidal effect (evaluation scale 0-5) (bulrush [27]): 5 (mortality of 90% or above (nearly complete death)); C: ducksalad, herbicidal effect (evaluation scale 0-5) (ducksalad [28]): 5 (mortality of 90% or above (nearly complete death))
2 | CCOC(=O)N(c1ccccc1CN1COC(C)(COC)CC1=O)S(=O)(=O)C(F)(F)F (stereo not drawn) [II-55] | 0 (mortality of less than 5% (almost ineffective)) | 5 (mortality of 90% or above (nearly complete death)) | 5 (mortality of 90% or above (nearly complete death)) | 5 (mortality of 90% or above (nearly complete death)) | 5 (mortality of 90% or above (nearly complete death)) | 5 (mortality of 90% or above (nearly complete death)) | 5 (mortality of 90% or above (nearly complete death)) | 5 (mortality of 90% or above (nearly complete death)) | 5 (mortality of 90% or above (nearly complete death)) | 5 (mortality of 90% or above (nearly complete death)) | 3 (mortality of at least 40% and less than 70%) | 5 (mortality of 90% or above (nearly complete death)) | 4 (mortality of at least 70% and less than 90%) | 5 (mortality of 90% or above (nearly complete death)) | 5 (mortality of 90% or above (nearly complete death)) | 5 (mortality of 90% or above (nearly complete death)) | 5 (mortality of 90% or above (nearly complete death)) | 5 (mortality of 90% or above (nearly complete death)) | 4 (mortality of at least 70% and less than 90%) | 4 (mortality of at least 70% and less than 90%) | E: giant foxtail, herbicidal effect (giant foxtail [20]): 5 (mortality of 90% or above (nearly complete death)); K: redroot pigweed, herbicidal effect (redroot pigweed [21]): 0 (mortality of less than 5% (almost ineffective)); O: beadstraw, herbicidal effect (beadstraw): 4 (mortality of at least 70% and less than 90%); N: common chickweed, herbicidal effect (common chickweed [22]): 4 (mortality of at least 70% and less than 90%); L: common lambsquater, herbicidal effect (common lambsquater [23]): 4 (mortality of at least 70% and less than 90%); M: posumbu knotweed, herbicidal effect (posumbu knotweed [24]): 3 (mortality of at least 40% and less than 70%); I: velvetleaf, herbicidal effect (velvetleaf [25]): 5 (mortality of 90% or above (nearly complete death)); A: barnyardgrass, herbicidal effect (evaluation scale 0-5) (barnyardgrass [26]): 5 (mortality of 90% or above (nearly complete death)); B: bulrush, herbicidal effect (evaluation scale 0-5) (bulrush [27]): 5 (mortality of 90% or above (nearly complete death)); C: ducksalad, herbicidal effect (evaluation scale 0-5) (ducksalad [28]): 5 (mortality of 90% or above (nearly complete death))
